Assay results from patent publication US11013705B2, “Methods and compositions for supporting renal health” (The Regents of the University of California, priority 2019, dated 2021).
“Also recorded” adds a separate entry of the source.

Tests used:
[1] = system: Han:SPRD rats; assay: Oral BHB treatment in drinking water of juvenile Han:SPRD PKD rats, post-natal weeks 3-8; type: in vivo, rat
Protocol: Han:SPRD rats, a non-orthologous model of PKD with a mutation in Anks6 were placed on a time-restricted feeding (TRF) regime wherein TRF animals had access to food for an 8-h period within their 12-h dark cycle. Animals were treated for 5 weeks from post-natal weeks 3-8. […] Additionally, TRF-treated animals had increased levels of BHB and reduced blood glucose indicative of ketosis. Oral BHB Treatment Prevents Polycystic Disease Progression in Juvenile Rats. To investigate if BHB might affect PKD progression, Han:SPRD rats were treated with BHB from post-natal weeks 3-8 in the context of ad libitum feeding with normal, high-carbohydrate chow (NC). BHB was administered as a sodium and potassium salt in the drinking water ad libitum at a dose equivalent to that recommended as a dietary supplement in BHB supplement drinks. Control cohorts received either normal water or water supplemented with the molar equivalents of salt provided in the BHB supplement (a mixture of NaCl/KCl).

[2] = system: Han:SPRD rats; assay: BHB, citrate and combined BHB-citrate treatment in drinking water of Han:SPRD PKD rats, post-natal weeks 3-8; type: in vivo, rat; settings: for dose dependence of benefit on PKD progression: varying concentrations, citrate particularly at the 120 mM dosage
Protocol: To investigate BHB, citrate, and combined BHB and citrate effects on PKD progression, Han:SPRD rats were treated with BHB or a combination of BHB and citrate from post-natal weeks 3-8 in the context of ad libitum feeding with normal, high-carbohydrate chow (NC). In the BHB treatments, BHB was administered as a sodium and potassium salt in the drinking water ad libitum at a dose equivalent to that recommended as a dietary supplement in BHB supplement drinks. In the citrate treatments, citrate was administered as a combination of tripotassium citrate and citric acid at a (0.82/1) ratio at a dose equivalent to that recommended utilized in citrate dietary supplements. Control cohorts received either normal water or water supplemented with the molar equivalents of salt provided in the BHB or BHB-citrate supplements (a mixture of NaCl/KCl). […]

[3] = PKD rats, 5 weeks BHB in drinking water
[4] = PKD rats, 5 weeks BHB in drinking water, normal chow, vs water- and salt-treated controls

| Molecule | effect on body weight ([1]; 5 weeks BHB in drinking water) | effect on wild-type kidneys and other organs ([1]; 5 weeks BHB in drinking water) | fibrosis [1, 3] | kidney function (assessed by creatinine) [1, 3] | myofibroblasts [1, 3] | proliferation [1, 3] | 2-kidney to body weight ratio [1, 4] | cystic area [1, 4] | kidneys of PKD animals at the gross and histological level ([1]; after 5 weeks of treatment) | effect on body weight ([2]; 5 weeks in drinking water) | effect on wild-type kidneys and other organs ([2]; 5 weeks in drinking water) | 2-kidney to body weight ratio ([2]; PKD rats, 5 weeks, vs water- and salt-treated controls (FIG. 8A)) | cystic area ([2]; PKD rats, 5 weeks, vs water- and salt-treated controls (FIG. 8B)) | kidneys of PKD animals at the gross and histological level ([2]; after 5 weeks of treatment) | dose dependence of benefit on PKD progression [2] |
| --- | --- | --- | --- | --- | --- | --- | --- | --- | --- | --- | --- | --- | --- | --- | --- |
| CC(O)CC(=O)O (stereo not drawn) [BHB, beta-hydroxybutyric acid] | no effect | Neither wild-type kidneys nor other organs were affected | strong reduction | improved | almost complete elimination; also recorded: almost complete absence | inhibition | striking and unexpected reductions | striking and unexpected reductions | nearly indistinguishable from kidneys of wild-type animals | no effect | Neither wild-type kidneys nor other organs were affected | striking reductions | striking reductions | nearly indistinguishable from kidneys of wild-type animals | dose-dependent benefits |
| citrate |  |  |  |  |  |  |  |  |  |  |  |  |  |  | dose-dependent therapeutic effects |
